Where “and” joins values, the source holds several entries; their conditions need not be identical. Equal values may be shown once. Entries after “also recorded” stand apart in the source; their conditions may differ. Read-outs that look alike come from different tables or passages of the source.
Columns and labels:
BoNT/A / LcA = conditions: cited from earlier work
LcA (BoNT/A light chain) [1] = target: T1, LcA (BoNT/A light chain) (Clostridium botulinum, UniProt P0DPI0); conditions: cited from earlier work
T1 sequence (P0DPI0 1-448 limits assumed): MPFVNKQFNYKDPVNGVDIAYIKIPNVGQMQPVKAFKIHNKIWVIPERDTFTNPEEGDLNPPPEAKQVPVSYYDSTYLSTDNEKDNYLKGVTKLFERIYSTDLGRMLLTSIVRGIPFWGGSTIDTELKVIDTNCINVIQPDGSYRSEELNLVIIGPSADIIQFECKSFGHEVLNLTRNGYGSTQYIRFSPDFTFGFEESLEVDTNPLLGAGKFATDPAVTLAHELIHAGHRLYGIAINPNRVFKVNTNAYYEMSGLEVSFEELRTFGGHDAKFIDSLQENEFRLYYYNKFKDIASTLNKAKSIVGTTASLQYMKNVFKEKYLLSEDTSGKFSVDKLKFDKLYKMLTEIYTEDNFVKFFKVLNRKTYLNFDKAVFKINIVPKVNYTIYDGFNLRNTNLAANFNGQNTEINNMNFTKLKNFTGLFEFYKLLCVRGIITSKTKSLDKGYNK

LcA (BoNT/A light chain) [2] = target: T1, LcA (BoNT/A light chain); assay type: biochemical
LcA (BoNT/A light chain) [3] = target: T1, LcA (BoNT/A light chain); assay type: biochemical; remark: listed apart in the source
LcA (BoNT/A light chain) [4] = target: T1, LcA (BoNT/A light chain); assay type: biochemical; conditions: pH 7.4
LcA (BoNT/A light chain) [5] = target: T1, LcA (BoNT/A light chain); conditions: cited from earlier work; remark: listed apart in the source
LcA (BoNT/A light chain) [6] = target: T1, LcA (BoNT/A light chain)
LcA (BoNT/A light chain) [7] = target: T1, LcA (BoNT/A light chain); remark: listed apart in the source
LcA (BoNT/A light chain) [8] = target: T1, LcA (BoNT/A light chain); remark: listed apart in the source

O[C@@H](CS)[C@@H](O)CS (racemic) [DTT, dithiothreitol]
effect of DTT on solubilized LcA activity (BoNT/A / LcA): inhibited
effect on the LcA reaction depending on concentration (BoNT/A / LcA): both stimulating and inhibitory
effect on kinetic constants or specific activity of LcA with the 17-mer substrate (LcA (BoNT/A light chain) [1]): no effect
concentration for optimal LcA activity (LcA (BoNT/A light chain) [2]): 4 mM
effect of DTT on LcA activity, SNAP25 substrate (LcA (BoNT/A light chain) [2]; pH 7.4): slight stimulation of LcA activity
behavior of the new LcA preparation on adding BSA, ZnCl2 and DTT (LcA (BoNT/A light chain) [3]): essentially same behavior
effect of adding DTT and ZnCl2 to the 17-mer substrate reactions (LcA (BoNT/A light chain) [3]): results identical to those without them

O=C(O)CN(CCN(CC(=O)O)CC(=O)O)CC(=O)O [EDTA, ethylenediaminetetraacetate]
effect on BoNT / LcA activity (BoNT/A / LcA): inhibitor of LcA activity
effect on BoNT activities (BoNT/A / LcA): inhibits BoNT activities
effect on BoNT/A activity (BoNT/A / LcA): inhibitory

[Cl-].[Na+] [NaCl, Sodium chloride]
effect on BoNT activities (BoNT/A / LcA): inhibits BoNT activities
effect on BoNT/A activity (BoNT/A / LcA): inhibitory
effect of higher NaCl concentrations on LcA activity, full length SNAP25 substrate (LcA (BoNT/A light chain) [2]): decrease in LcA activity
effect of NaCl on LcA activity, full length SNAP25 substrate (LcA (BoNT/A light chain) [2]; pH 7.4): stimulating effect; also recorded: more than sevenfold
effect of NaCl on LcA activity, 66-mer substrate (LcA (BoNT/A light chain) [4]): stimulating effect; also recorded: The same was also observed when the 66-mer peptide was used as a substrate
effect of NaCl on LcA activity, 17-mer substrate (LcA (BoNT/A light chain) [3]; pH 7.4): inhibitory effect

Cl.NC(CO)(CO)CO [tris.HCl]
effect on BoNT / LcA activity (BoNT/A / LcA): inhibitory
effect on BoNT/A activity (BoNT/A / LcA): inhibitory

[Zn] [zinc]
effect on the LcA reaction depending on concentration (BoNT/A / LcA): both stimulating and inhibitory

(FITC)-ATDRIDQANQRATK(DABCYL)nL-amide
Km (LcA (BoNT/A light chain) [5]): 19 µM

SNKTRIDEANQ-RATKML [17-mer]
quality as LcA substrate (Km, kcat, kcat/Km) (LcA (BoNT/A light chain) [6]): poorest of all the three substrates
Km (LcA (BoNT/A light chain) [7]): 1500 µM
Vmax (LcA (BoNT/A light chain) [7]): 33.6 mM/min/mg
kcat (LcA (BoNT/A light chain) [7]): 28 s⁻¹
Km (LcA (BoNT/A light chain) [7]; pH 7.4): 1510 µM
kcat (LcA (BoNT/A light chain) [7]; pH 7.4): 28 s⁻¹ and 28 ± 3.5 s⁻¹
kcat/Km (LcA (BoNT/A light chain) [7]; pH 7.4): 0.019 µM/s
substrate conversion (LcA (BoNT/A light chain) [8]): 60–65%
substrate converted into products (LcA (BoNT/A light chain) [8]): 40%
Km (LcA (BoNT/A light chain) [5]): 1000 µM

SNRTRIDEAN[dnpK]RA[daciaC]RML
Km (LcA (BoNT/A light chain) [5]): 10 µM
kcat (LcA (BoNT/A light chain) [5]): 7 s⁻¹

zinc chloride [ZnCl2]
effect on kinetic constants or specific activity of LcA with the 17-mer substrate (LcA (BoNT/A light chain) [1]): no effect
concentration for optimal LcA activity (LcA (BoNT/A light chain) [2]): 0.1 mM
effect of ZnCl2 on LcA activity, SNAP25 substrate (LcA (BoNT/A light chain) [2]; pH 7.4): slight stimulation of the activity; also recorded: activity remained above the control 100%
behavior of the new LcA preparation on adding BSA, ZnCl2 and DTT (LcA (BoNT/A light chain) [3]): essentially same behavior
effect of adding DTT and ZnCl2 to the 17-mer substrate reactions (LcA (BoNT/A light chain) [3]): results identical to those without them
